Laboratory results reported in paper PMC12473165, “Theranostic Potential of a New ^64Cu-Labeled NOTA-R954 Peptide Conjugate for Kinin B1R Expressing Prostate Cancer” (Pharmaceutics, 2025).
Several values for one entry are separate records, joined by “and”; a condition that tells them apart may be missing. Equal values may be shown once. Square brackets hold non-standard residues; d marks the D form. Peptide text beside a SMILES is read from it. * marks the point of attachment. NOTA = O=C(O)CN1CCN(CC(=O)O)CCN(CC(=O)*)CC1; Oic = O=C(O)[C@@H]1C[C@@H]2CCCC[C@@H]2N1; d2Nal = N[C@H](Cc1ccc2ccccc2c1)C(=O)O; αMeF = C[C@](N)(Cc1ccccc1)C(=O)O; Orn = NCCC[C@H](N)C(=O)O; βAla = NCCC(=O)O

Tests used:
hB1R [1] = biological target: T1, hB1R (Homo sapiens, UniProt P46663); experiment: Radioligand competition binding on HEK293 cells stably expressing hB1R; design: expressed in transfected cells; host or cells: QBI-HEK293A (lentiviral transduction, puromycin selection); conditions: hB1R-stably expressing HEK293 cells, means of two independent experiments
T1 sequence (P46663 1-353): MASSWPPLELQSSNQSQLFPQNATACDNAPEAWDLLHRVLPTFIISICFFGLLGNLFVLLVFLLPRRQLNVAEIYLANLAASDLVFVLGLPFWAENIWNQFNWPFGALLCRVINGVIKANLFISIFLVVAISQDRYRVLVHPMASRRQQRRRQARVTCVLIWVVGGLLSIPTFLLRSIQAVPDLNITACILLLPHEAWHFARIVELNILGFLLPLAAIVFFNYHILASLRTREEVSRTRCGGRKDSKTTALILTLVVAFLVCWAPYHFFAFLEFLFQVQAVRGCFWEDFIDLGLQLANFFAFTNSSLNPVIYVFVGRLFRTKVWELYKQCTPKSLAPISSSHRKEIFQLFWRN

hB1R [2] = biological target: T1, hB1R; experiment: NFAT-eGFP reporter assay in CHO-hB1R-NFAT-eGFP cells; type: cell-based; design: expressed in transfected cells; host or cells: CHO (hB1R-expressing line, then transduced with NFAT-eGFP reporter); conditions: means of two independent experiments; for EC50: hB1R-stably expressing CHO-NFAT-eGFP cells, agonist potency, 16 h stimulation, read-out: CHO-NFAT EC50 (Table S2); for IC50: hB1R-stably expressing CHO-NFAT cells, antagonist potency, read-out: CHO-NFAT IC50 (Table S1)
Source text: The pLenti-6V5-NFAT-eGFP vector was generated from the pSIRV-NFAT-eGFP vector (a gift from Peter Steinberger, Addgene plasmid #118031). Briefly, NFAT-eGFP gene was PCR amplified using the following primers: 5′-[…]-3′ and 5′-[…]-3′). The amplified gene was then ligated into the ClaI and AgeI restriction sites of the pLenti-6V5 vector. Lentiviruses were produced using the pLenti-6V5-NFAT-eGFP vector in HEK293T cells and used to transduce a hB1R-expressing CHO cell line, followed by selection with 10 µg/mL blasticidin. […] Clones were grown in 4000 nanowells/well in 24-well plates and re-plated into 96-well plates after initial expansion via the ALS CellCelector™ (Sartorius Corporation, Bohemia, NY, USA). After clonal expansion, individual cell lines were evaluated based on their ratio of stimulated fluorescence to basal expression to determine maximum sensitivity.
Fluorescence assays performed on CHO-hB1R-NFAT-eGFP cells. Target cells were plated at 10,000 cells/well in a 96-well microplate (opaque black wells with clear flat bottom, Thermo Scientific, Rockford, IL, USA) using RPMI 1640 medium with 10% fetal bovine serum (FBS). After 24 h, the medium was replaced by RPMI without FBS and phenol red. […] Fluorescence was measured using a TECAN M1000 (Tecan Group Ltd., Männedorf, Switzerland) multimode microplate reader with excitation at 488 nm and emission at 507 nm. Each data point represents a ratio of two values, divided by the average fluorescence of six control wells. […] Antagonist affinity (Kb) was estimated from functional inhibition curves using the Gaddum (Schild) equation assuming competitive antagonism at human B1R: Kb = [B]/(dose-ratio–1), where [B] is the antagonist concentration, and the dose ratio is EC50 + Compound/EC50.

[3] = mouse, in vivo, iv
Protocol: To perform ex vivo biodistribution studies, radiolabeled peptides (5–10 MBq; 100 μL) were administered to isoflurane-anaesthetized normal male Balb/c mice through caudal vein injection. Organs were collected 1 h and 4 h post-injections from CO2 inhalation-euthanized animals and were washed, weighted, and radioactivity measured in a gamma counter (Cobra II auto-gamma counter, Packard). The percentage of injected dose per gram of tissue (%ID/g) was then calculated, accounting for decay correction, using external ^64Cu standards. Biodistribution of the radiolabeled peptides was also performed in PCa tumor-bearing nude mice using micro-PET imaging performed on a 7.5 cm axial and 10 cm transaxial field of view LabPET8 small-animal scanner (Gamma Medica-IDEAS Inc., Northridge, CA, USA) in combination with X-ray computer tomography (CT) (MILabs U-CT system, Utrecht, The Netherlands). For this, radiolabeled peptides (6–9 MBq in 200 μL) were delivered by tail-vein injection to isoflurane-anaesthetized mice. PET scans composed of 30 min static acquisition were acquired at 1 h and 20 h after injection. […] To quantify the tumor uptake of the radiotracer, a volume of interest (VOI) was drawn around the center of the tumor. The uptake was determined as the means of the VOI voxels having intensity in the upper quartile.

PC3 xenografts = experiment: Peptide receptor radionuclide therapy (PRRT) in PC3 xenograft-bearing mice; type: in vivo, mouse; conditions: nude mice with s.c. PC3 xenografts, single IV dose 50 µg/kg; 65 MBq
Protocol: Male Nu/Nu nude mice (Crl:NU-Foxn1nu: 4–6 weeks old, Charles River Laboratories, Inc., Wilmington, MA, USA) were subcutaneously (s.c.) inoculated into one or both lower flanks with PCa cells. LNCap cells (10 x 10^6) and PC3 cells (2.5 × 10^6) were suspended in 0.2 mL of a 1:1 (v/v) mixture of antibiotic-free DMEM medium and Matrigel (#356234, Sigma-Aldrich) for injection. Within 10–21 days post-inoculation, solid palpable prostate tumors had developed, and the animals were used for biodistribution, PET imaging, and radiotherapy studies. […]
Therapeutic efficacies of agents were investigated in PC3 xenograft-bearing mice. […] Tumor growth was monitored with a digital vernier caliper using the following formula: length × width^2. The weight of the mice was monitored throughout the study. […] Tumor growth was normalized by calculating the ratio of the tumor volume at each time point to the initial tumor volume measured prior to treatment. […]. […]
Retrieved subcutaneous tumors (5 μm thick sections) were evaluated by H&E and semiquantitative IHC staining of B1R, Ki67 (proliferation), cleaved caspase 3 (apoptosis), CD34 (angiogenesis), and LYVE-1 (lymphangiogenesis). […] Positive Ki67 staining was determined by the nucleus count (Ki-67+ cells/total cells) in sampled fields. […]

[4] = binding affinity of agonists, read-out: HEK293 IC50 (Table S2)
[5] = binding affinity, read-out: HEK293 IC50 (Table S1)

| IC50 (hB1R [1]; [4]) [nM] | EC50 (hB1R [2]) [nM] | IC50 (hB1R [1]; [5]) [nM] | IC50 (hB1R [2]) | Compound | also measured |
| --- | --- | --- | --- | --- | --- |
| 2.3 | 2.2 | – | – | N=C(N)NCCC[C@H](NC(=O)[C@H](CCCCN)NC(=O)CCNC(=O)CN1CCN(CC(=O)O)CCN(CC(=O)O)CC1)C(=O)N1CCC[C@H]1C(=O)N1CCC[C@H]1C(=O)NCC(=O)N[C@@H](Cc1ccccc1)C(=O)N[C@@H](CO)C(=O)N1CCC[C@H]1C(=O)N[C@H](Cc1ccccc1)C(=O)O [MAB2047] | – |
| 40 | 41 | – | – | CNCC(=O)N[C@@H](CCCCNC(=O)CN1CCN(CC(=O)O)CCN(CC(=O)O)CC1)C(=O)N[C@@H](CCCNC(=N)N)C(=O)N1CCC[C@H]1C(=O)N1CCC[C@H]1C(=O)NCC(=O)N[C@@H](Cc1ccccc1)C(=O)N[C@@H](CO)C(=O)N1CCC[C@H]1C(=O)N[C@H](Cc1ccccc1)C(=O)O [MAB8066] | – |
| – | – | – | – | CC[C@H](C)[C@H](NC(=O)[C@@H](Cc1ccc2ccccc2c1)NC(=O)[C@H](CO)NC(=O)[C@](C)(Cc1ccccc1)NC(=O)CNC(=O)[C@@H]1CCCN1C(=O)[C@@H]1C[C@@H]2CCCC[C@@H]2N1C(=O)[C@H](CCCNC(=N)N)NC(=O)[C@H](CCCN)NC(=O)CCNC(=O)CN1CCN(CC(=O)O)CCN(CC(=O)O)CC1)C(=O)O [^64Cu/NOTA-βAla-R954, metal not drawn] ({NOTA-βAla}-[Orn]R[Oic]PG[αMeF]S[d2Nal]I-OH) | clearance from the bloodstream [3]: rapid clearance; observable toxicity (body weight) (PC3 xenografts): did not induce any observable toxicity |
| – | – | 13 | 9.8 nM and 10 nM | CC[C@H](C)[C@H](NC(=O)[C@@H](Cc1ccc2ccccc2c1)NC(=O)[C@H](CO)NC(=O)[C@](C)(Cc1ccccc1)NC(=O)CNC(=O)[C@@H]1CCCN1C(=O)[C@@H]1C[C@@H]2CCCC[C@@H]2N1C(=O)[C@H](CCCNC(=N)N)NC(=O)[C@H](CCCN)NC(=O)CN1CCN(CC(=O)O)CCN(CC(=O)O)CC1)C(=O)O (natCu complex, metal not drawn) [MAB7090] | – |
| – | – | 5 | 0.4 nM | CC[C@H](C)[C@H](NC(=O)[C@@H](Cc1ccc2ccccc2c1)NC(=O)[C@H](CO)NC(=O)[C@](C)(Cc1ccccc1)NC(=O)CNC(=O)[C@@H]1CCCN1C(=O)C1CC2CCCCC2N1C(=O)[C@H](CCCNC(=N)N)NC(=O)[C@H](CCCN)NC(=O)CN1CCN(CC(=O)O)CCN(CC(=O)O)CC1)C(=O)O (stereo partly shown) [MAB7020] | – |
